Data as given in ChEMBL document CHEMBL1134966 (Bioorg Med Chem Lett, 2002).

How the values were obtained:
Assay in all cases: cells
Assay type in all cases: functional, cell-based
Settings in all cases: Homo sapiens
[1] = system: CCRF-CEM
Description: In vitro cytotoxic effect on CEM cancer cell line

[2] = system: G-361
Description: In vitro cytotoxic effect on G361 cancer cell line

[3] = system: HOS
Description: In vitro cytotoxic effect on HOS cancer cell line

[4] = system: K562
Description: In vitro cytotoxic effect on K562 cancer cell line

[5] = system: MCF7
Description: In vitro cytotoxic effect on MCF-7 cancer cell line

CC[C@H](CO)Nc1nc(NCc2ccccc2O)c2ncn(C(C)C)c2n1 [OLOMOUCINE II]
IC50 [1]: 3 µM | IC50 [2]: 6.3 µM | IC50 [3]: 6.3 µM | IC50 [4]: 11.1 µM | IC50 [5]: 5.3 µM

Cn1cnc2c(NCc3ccccc3)nc(NCCO)nc21 [OLOMOUCINE]
IC50 [1]: 62 µM | IC50 [2]: 160 µM | IC50 [3]: 149 µM | IC50 [4]: > 167 µM

CC(C)[C@H](CO)Nc1nc(Nc2cccc(Cl)c2)c2ncn(C(C)C)c2n1 [PURVALANOLA]
IC50 [1]: 7.4 µM | IC50 [2]: 24 µM | IC50 [3]: 22 µM | IC50 [4]: 9 µM | IC50 [5]: 10.7 µM

CC(C)C(CO)Nc1nc(NCc2ccccc2O)c2ncn(C(C)C)c2n1 (stereo unspecified)
IC50 [1]: 4.4 µM | IC50 [2]: 7.8 µM | IC50 [3]: 8.3 µM | IC50 [4]: 10.9 µM | IC50 [5]: 5.7 µM

CC(C)n1cnc2c(NCc3ccccc3)nc(NCCCO)nc21 [BOHEMINE]
IC50 [1]: 27 µM | IC50 [2]: 45 µM | IC50 [3]: 58 µM | IC50 [4]: 113 µM | IC50 [5]: 28 µM

CCC(CO)Nc1nc(NCc2cccc(O)c2)c2ncn(C(C)C)c2n1 (stereo unspecified)
IC50 [1]: 9.9 µM | IC50 [2]: 19.4 µM | IC50 [3]: 11 µM | IC50 [4]: 26 µM | IC50 [5]: 13.7 µM

CC(C)C(CO)Nc1nc(NCc2ccc(O)cc2)c2ncn(C(C)C)c2n1 (stereo unspecified)
IC50 [1]: 5.3 µM | IC50 [2]: 11.1 µM | IC50 [3]: 12 µM | IC50 [4]: 14.8 µM | IC50 [5]: 9.3 µM

CCC(CO)Nc1nc(NCc2ccc(O)cc2)c2ncn(C(C)C)c2n1 (stereo unspecified)
IC50 [1]: 11 µM | IC50 [2]: 11.1 µM | IC50 [3]: 13 µM | IC50 [4]: 24 µM | IC50 [5]: 7.8 µM

CC(C)n1cnc2c(NCc3ccc(O)cc3)nc(NCCCO)nc21
IC50 [1]: 18.2 µM | IC50 [2]: 23 µM | IC50 [4]: 57 µM | IC50 [5]: 12.7 µM

CC(C)n1cnc2c(NCc3ccccc3O)nc(NCCCO)nc21
IC50 [1]: 10.7 µM | IC50 [2]: 13.3 µM | IC50 [3]: 17.2 µM | IC50 [4]: 24 µM | IC50 [5]: 12.4 µM

CC(C)C(CO)Nc1nc(NCc2cccc(O)c2)c2ncn(C(C)C)c2n1 (stereo unspecified)
IC50 [1]: 6.7 µM | IC50 [4]: 16.1 µM | IC50 [5]: 14.8 µM

CC(C)n1cnc2c(NCc3cccc(O)c3)nc(NCCCO)nc21
IC50 [1]: 17.6 µM | IC50 [2]: 26 µM | IC50 [3]: 26 µM | IC50 [4]: 56 µM | IC50 [5]: 14.7 µM
